Like-named read-outs stand apart in the source and are kept apart here.
Assays:
in vivo [1] = conditions: for selectivity ratio: rat, in vivo, po
Description: (§1) Anti-inflammatory activity was tested as follows: Male rats of the Wistar strain were used in groups of 7. A test compound was suspended in a 0.2% carboxymethyl cellulose solution and orally administered in a dose of 0.5 ml/100 g of body weight. […] Three hours after injection of carrageenin, each rat was sacrificed by ether. The feet of both hind legs were amputated at the ankle joint and weighed to detect the difference in weight between both feet. Then, the ability of the test compound to suppress the carrageenin-induced edema was evaluated by comparing the foot weight difference of the test group with that of a control group (consisting of rats to which the solvent alone was administered). Specifically, the rate of suppression of the edema was calculated according to the following equation: [formula]
The incidence of gastric disorders in rats was tested as follows: Eight-weeks-old male rats of the Wistar strain were used in groups of 5 to 7. After they were fasted for 18 hours or more, a test compound was administered orally. Six hours later, each rat was sacrificed by decapitation. The stomach was removed, filled with 10 ml of physiological saline, and then fixed in 5% formalin. After about 10 minutes, the stomach was incised through the greater curvature and the presence or absence of gastric disorders (in particular, erosion) was examined by visual observation. According to Litchfield-Wilcoxon's method, the dose causing erosion to occur in 50% of the test animals, UD50, was calculated on an all-or-none basis.

Safety margin LD50/ED50 = conditions: for Safety margin, LD50/ED50: Table 1
Description: as §1
A test compound was suspended in a 0.2% carboxymethyl cellulose solution and orally administered in a dose of 0.1 ml/10 g of body weight. […] The LD50 value was calculated on the basis of the death rates on the final day.

in vivo [2] = assay type: in vivo; conditions: mouse, in vivo; Table 1; mice, oral, 7 days; read-out: Acute toxicity, LD50
mice = experiment: in vivo; assay type: in vivo; conditions: Table 5; for Number of deaths / total number of test animals: p.o.; for LD50: observed for 7 days
[3] = tested on: carrageenin-induced edema; experiment: Anti-inflammatory activity: suppression of carrageenin-induced edema in the rat hind foot; assay type: in vivo, male rats of the Wistar strain
[4] = Incidence of gastric disorders (erosion) in rats; assay type: in vivo, male rats of the Wistar strain; conditions: rat, in vivo, po
From the text: (§2) Six hours later, each rat was sacrificed by decapitation.

[5] = tested on: carrageenin-induced edema; experiment: Duration of anti-inflammatory activity (carrageenin edema at varied premedication times); assay type: in vivo, male rats of the Wistar strain; conditions: for Rate of suppression of edema in rats premedicated at various times: Table 3, dose = ED50
From the text: The premedication time was defined as the time interval between the administration of a test compound and the injection of carrageenin.

[6] = prior art, in words; cited from earlier work
[7] = tested on: gastric disorders (erosion); experiment: Incidence of gastric disorders (erosion) in rats; assay type: in vivo, male rats of the Wistar strain; conditions: Table 1; rats, oral
From the text: as §2

[8] = in words, among the compounds of Table 1

Compound	selectivity ratio (in vivo [1])	Safety margin compared with indomethacin and diclofenac (Safety margin LD50/ED50; in words)	Rate of suppression of edema in rats premedicated at various times ([5]; premedication 1 hr.)	Rate of suppression of edema in rats premedicated at various times ([5]; premedication 3 hr.)	Rate of suppression of edema in rats premedicated at various times ([5]; premedication 6 hr.)	Rate of suppression of edema in rats premedicated at various times ([5]; premedication 24 hr.)	Rate of suppression of edema in rats premedicated at various times ([5]; premedication 48 hr.)	LD50 (mice)	also measured
Cc1cccc(NC(=O)C2C(=O)c3ccccc3S(=O)(=O)N2C)n1 (centres unmarked) [6-Methyl-2-pyridyl compound, N-(6-methyl-2-pyridyl)-3,4-dihydro-2-methyl-4-oxo-2H-1,2-benzothiazine-3-carboxamide 1,1-dioxide]	1.1	–	–	–	–	–	–	–	–
CN1C(C(=O)Nc2cccc(Cl)n2)C(=O)c2ccccc2S1(=O)=O (centres unmarked) [Compound of formula (1), N-(6-chloro-2-pyridyl)-3,4-dihydro-2-methyl-4-oxo-2H-1,2-benzothiazine-3-carboxamide 1,1-dioxide]	30.8	superior	55.7%	54.9%	48.3%	22.6%	9.8%	–	selectivity ratio (Safety margin LD50/ED50; in vivo, po): 615; Degree of safety (Safety margin LD50/ED50; in words): very high degree of safety; Safety margin (Safety margin LD50/ED50; [8]): remarkably high; LD50 at 168 h (in vivo [2]): 4000 mg/kg; Number of deaths / total number of test animals (mice; 1,000 mg/kg): 0/5; Number of deaths / total number of test animals (mice; 3,000 mg/kg): 2/5; Number of deaths / total number of test animals (mice; 5,000 mg/kg): 3/5; Therapeutic index compared with indomethacin and diclofenac (in vivo [1]; in words): superior; Therapeutic index (in vivo [1]; [8]): remarkably high; inhibition in vivo at 2 mg/kg ([3]; Rattus norvegicus, po, 3 h, Table 2, 2.0 mg/kg, p.o., read-out: Rate of suppression of edema): 19.4%; inhibition in vivo at 4 mg/kg ([3]; Rattus norvegicus, po, 3 h, Table 2, 4.0 mg/kg, p.o., read-out: Rate of suppression of edema): 43.6%; inhibition in vivo at 8 mg/kg ([3]; Rattus norvegicus, po, 3 h, Table 2, 8.0 mg/kg, p.o., read-out: Rate of suppression of edema): 50.6%; inhibition in vivo at 16 mg/kg ([3]; Rattus norvegicus, po, 3 h, Table 2, 16.0 mg/kg, p.o., read-out: Rate of suppression of edema): 71%; ED50 ([3]; Rattus norvegicus, po, read-out: Dose producing 50% suppression, ED50, Table 2, carrageenin 1 h after compound, read 3 h later): 6.5 mg/kg; ED50 ([3]; Table 1, rat carrageenin edema, oral, read-out: Anti-inflammatory activity, ED50): 6.5 mg/kg; Anti-inflammatory activity ([3]; in words): potent and long-lasting; TD50 at 6 h [4]: 200 mg/kg; Rate of suppression of edema in rats premedicated at various times ([5]; premedication 12 hr.): 40.3%; Duration of anti-inflammatory activity ([5]; in words): excellent
O=C(O)Cc1ccccc1Nc1c(Cl)cccc1Cl [Diclofenac]	–	–	45.9%	24.7%	17.6%	-1.2%	–	–	–
COc1ccc2c(c1)c(CC(=O)O)c(C)n2C(=O)c1ccc(Cl)cc1 [Indomethacin]	1.2	–	49.4%	57.6%	29.4%	-3.5%	–	–	Safety margin, LD50/ED50 (Safety margin LD50/ED50): 3.7; Rate of suppression of edema in rats premedicated at various times ([5]; premedication 12 hr.): 18.8%
Cc1cc(NC(=O)C2C(=O)c3ccccc3S(=O)(=O)N2C)no1 (centres unmarked) [Isoxicam, 3,4-dihydro-2-methyl-N-(5-methyl-3-isoxazolyl)-4-oxo-2H-1,2-benzothiazine-3-carboxamide 1,1-dioxide]	–	superior	–	–	–	–	1.1%	5,000 mg/kg, p.o.	Anti-inflammatory activity compared with Piroxicam and Sudoxicam [6]: lower
CN1C(C(=O)Nc2ccccn2)C(=O)c2ccccc2S1(=O)=O (centres unmarked) [Piroxicam, 3,4-dihydro-2-methyl-4-oxo-N-(2-pyridyl)-2H-1,2-benzothiazine-3-carboxamide 1,1-dioxide]	–	superior	–	–	40.0%	–	1.7%	490 mg/kg, p.o.	Anti-inflammatory activity [6]: potent and long-lasting
CN1C(C(=O)Nc2nccs2)C(=O)c2ccccc2S1(=O)=O (centres unmarked) [Sudoxicam, 3,4-dihydro-2-methyl-4-oxo-N-(2-thiazolyl)-2H-1,2-benzothiazine-3-carboxamide 1,1-dioxide]	2.3	superior	–	–	–	–	-2.4%	500 mg/kg, p.o.	Safety margin, LD50/ED50 (Safety margin LD50/ED50): 98; Anti-inflammatory activity [6]: potent and long-lasting; Degree of toxicity and incidence of gastric disorders compared with indomethacin and diclofenac [6]: not appreciably different; Therapeutic index compared with indomethacin and diclofenac (in vivo [1]; in words): superior; Gastric disorders, UD50 [7]: 11.8 mg/kg

From US4376768A, “Benzothiazine derivative” (priority 1980, dated 1983)
